From article PMC11945079, “Gadolinium Complex with Tris-Hydroxypyridinone as an Input for New Imaging Probes: Thermodynamic Stability, Molecular Modeling and Biodistribution” (Molecules, 2025)
Like-named read-outs stand apart in the source and are kept apart here.

How the values were obtained:
[1] = cited from earlier work; for pGd: pH 7.4
[2] = in water; cited from earlier work
[3] = Potentiometric titration of the 1:1 Gd/L system: stability constants of the Gd(III) complexes, pGd, species distribution; assay type: physicochemical
Description: (§1) All the studies were performed by potentiometric titrations of the ligand alone or in the presence of a 1:1 Gd/L stoichiometric ratio (Figure 1), which allowed for the determination of the protonation constants of KEMPPr(3,4-HP)3, as well as the stability constants of the formed Gd(III) complexes, from the best fitting of the experimental curves with the Hyperquad program (Table 1). Other Gd-to-ligand molar ratios were not considered in the present study, because it was admitted that species with a 1:2 stoichiometric ratio are present only at quite low concentrations for pH ca 7 [10].
Analysis of the potentiometric titration curves (Figure 1), namely those obtained for the Gd(III)/KEMPPr(3,4-HP)3 system under 1:1 (Gd/L) stoichiometry, evidences a change in the deprotonation profile of the ligand due to its coordination to Gd (III). Since some precipitation was detected above pH = 6, the corresponding experimental points were not used in the calculations to obtain the Gd (III) complexation model. The obtained Gd(III) complexation model presents some similarities to that previously found for H3L2 (see Table 1), firstly involving the formation of a bis-chelated GdH4L^4+ species, a GdH2L^2+ tetra-chelated complex, and afterwards the formation of a neutral hexa-coordinated GdL species. […] Concerning the Gd(III)/H3L2 system (in water, CL = CGd = 3.2 × 10^−4 M), the Gd(III) complexation also begins at pH ca 2, and the GdL species forms at pH ca 3.7 and becomes dominant at pH 4.5 [11]. For the Gd (III)/NTP (PrHP)3 system (in water), the GdL species is not involved in the proposed model.
(§2) The compound KEMPPr(3,4-HP)3 was synthesized according to the previously published procedure. The GdCl3 stock solution (9.8 × 10^−3 M) was prepared from the gadolinium salt in HCl 0.1 M medium to avoid hydrolysis, and standardized by inductively coupled plasma emission (ICP). The 0.1 M HCl solution used in the calibration of the glass electrode was obtained from a Titrisol ampoule (Merck, Darmstadt, Germany). The precise amount of HCl in the Gd(III) solution was determined by the standard-addition method using 0.1 M HCl (Titrisol). The titrant solution used in the potentiometric titrations was obtained from a carbonate-free 0.1 M KOH commercial ampoule (Titrisol) and standardized by titration with potassium hydrogen phthalate, and rejected whenever the percentage of carbonate (Gran’s method) was higher than 1% of the total amount of base. The potentiometric studies were performed with an automated potentiometric apparatus containing a Crison micropH 2002 millivoltimeter, a Crison microBu 2031 burette (Crison Instruments, Barcelona, Spain) and a Haake thermostatic bath (Haake Technik GmbH, Vreden, Germany, T = 25.0 ± 0.1 °C), controlled by the PASAT program. The glass and Ag/AgCl reference electrodes were previously conditioned in different DMSO/water mixtures of an increasing DMSO % composition (until 50%) and the response of the glass electrode was measured through the determination of the Nernst parameters by Gran’s method, obtained from strong acid–strong base (HCl/KOH) calibrations.
Potentiometric titrations of compound KEMPPr(3,4-HP)3, in the absence or presence of Gd(III), were performed in 50% (w/w) DMSO/water medium at an ionic strength (I) of 0.1 M KCl, T = 25.0 ± 0.1 °C, using 0.1 M KOH titrant. Each titration was repeated three times, for which the total volume was 20 mL, the total concentration of ligand (CL) was 3.2 × 10^−4 M and the Gd^3+/KEMPPr(3,4-HP)3 molar ratios were 0:1 and 1:1.
The stepwise protonation constants, Ki = [HiL]/[Hi−1L][H] of the ligand, and the global stability constants of the Gd(III) complex, β (GdmHhL) = [GdmHhLl]/[Gd]^m[H]^h[L]^l, were calculated by fitting the potentiometric data with the Hyperquad 2003 software. […]

[4] = Potentiometric titration of the ligand alone: protonation constants and species distribution; assay type: physicochemical
Description: as §1
as §2, with “calibrations. […]” for “calibrations.”
The stepwise protonation constants, Ki = [HiL]/[Hi−1L][H] of the ligand, and the global stability constants of the Gd(III) complex, β (GdmHhL) = [GdmHhLl]/[Gd]^m[H]^h[L]^l, were calculated by fitting the potentiometric data with the Hyperquad 2003 software. The gadolinium hydrolysis model and ionic product of water (Kw) were determined under the same experimental conditions (50% (w/w) DMSO/water medium, I = 0.1 M KCl, T = 25.0 ± 0.1 °C) and the values obtained for the stability constants (log β (GdH−2) = −15.17, log β (GdH−3) = −24.06) were included in the equilibrium model as well as the value of Kw (10^−14.95). […]

[5] = Literature Gd(III) complex stability constants and pGd of comparison ligands; assay type: physicochemical; conditions: pH = 7, CL = 10^−5 M, CL/CGd = 10, from constants in water
[6] = in water, CL = CGd = 3.2 × 10^−4 M
[7] = 50% w/w DMSO/water, CL = 3.2 × 10^−4 M, 1:1
[8] = 50% w/w DMSO/water, T = 25.0 ± 0.1 °C, I = 0.1 M KCl
[9] = physiological pH (7.4), 50% (w/w) DMSO/water

## O=C(O)CN1CCN(CC(=O)O)CCN(CC(=O)O)CCN(CC(=O)O)CC1 [DOTA, 1,4,7,10-tetraazacyclododecane N,N′,N″,N‴-tetra-acetic acid]
[1]
  pGd: 20.4

## O=C(O)CN(CCN(CC(=O)O)CC(=O)O)CCN(CC(=O)O)CC(=O)O [DTPA, diethylenetriamine penta-acetic acid]
[1]
  pGd: 19.1

## Cc1c(O)c(=O)ccn1CCCNC(=O)CCC(CCC(=O)NCCCn1ccc(=O)c(O)c1C)(CCC(=O)NCCCn1ccc(=O)c(O)c1C)[N+](=O)[O-] [H3L2]
[1]; [6]
  pH at which Gd(III) complexation begins: ~2
  pH at which the GdL species becomes dominant: 4.5
  pH at which the GdL species forms: ~3.7
[1]; in water
  log β (GdmHhLl), (m,h,l) = (1,0,1) (log KGdL): 21.22(5)
  log β (GdmHhLl), (m,h,l) = (1,2,1): 30.03(6)
  log β (GdmHhLl), (m,h,l) = (1,4,1): 37.74(4)
[1]; pH = 7, CL = 10^−5 M, CL/CGd = 10, in water
  pGd (−log [Gd(III)]): 14.3
[2]
  difference between log K4 and log K5: 1.15

## Cc1c(O)c(=O)ccn1CCCNC(=O)C1(C)CC(C)(C(=O)NCCCn2ccc(=O)c(O)c2C)CC(C)(C(=O)NCCCn2ccc(=O)c(O)c2C)C1 (centres unmarked) [KEMPPr(3,4-HP)3]
[3]; [7]
  pH at which Gd(III) complexation begins: ~2
  pH at which the GdL complex becomes prevalent: 4.8
  pH at which the neutral GdL complex begins to form: ~3.5
[3]; [8]
  log β (GdmHhLl), (m,h,l) = (1,0,1) (log β GdL): 26.59(8)
  log β (GdmHhLl), (m,h,l) = (1,1,1): 31.30(4)
  log β (GdmHhLl), (m,h,l) = (1,2,1): 35.17(7)
  log β (GdmHhLl), (m,h,l) = (1,4,1): 41.35(8)
[3]; 50% w/w DMSO/water, T = 25.0 ± 0.1 °C, I = 0.1 M KCl, listed as H3L
  log β (GdmHhLl), (m,h,l) = (1,0,1) (log β GdL): 26.59
[3]; pH = 6, CL = 10^−5 M, CL/CGd = 10, 50% w/w DMSO/water
  pGd (−log [Gd(III)]): 13.2
[4]; 50% w/w DMSO/water
  difference between log K2 and log K3: 1.1
[4]; [9]
  composition of the solution: H3L species: 99.95%
  composition of the solution: monocharged H4L^+ species: 0.05%
[4]; species distribution, CL = 3.2 × 10^−4 M, 50% (w/w) DMSO/water
  pH range of predominance of the neutral H3L species: 3.4–9.9

## Cc1c(O)c(=O)ccn1CCCNC(=O)CCN(CCC(=O)NCCCn1ccc(=O)c(O)c1C)CCC(=O)NCCCn1ccc(=O)c(O)c1C [NTP(PrHP)3]
[1]; in water
  log β (GdmHhLl), (m,h,l) = (1,1,1) (log KGdHL): 26.35
  log β (GdmHhLl), (m,h,l) = (1,2,1): 31.16
  log β (GdmHhLl), (m,h,l) = (1,3,1): 35.69
  log β (GdmHhLl), (m,h,l) = (1,3,2): 52.3
  log β (GdmHhLl), (m,h,l) = (1,4,1): 39.46
  log β (GdmHhLl), (m,h,l) = (1,5,1): 42.8
  log β (GdmHhLl), (m,h,l) = (1,5,2): 65.3
[5]
  pGd (−log [Gd(III)]): 12.3

## Cn1ccc(C(=O)NCCN(CCNC(=O)c2ccn(C)c(=O)c2O)CCNC(=O)c2ccn(C)c(=O)c2O)c(O)c1=O [TREN-1-Me-3,2-HOPO]
[1]
  log KGdL (thermodynamic stability of the Gd(III) complex): 19.2
